Test results published in patent US6914122B2 (priority 2000, dated 2005).
*1 amine or outer side, *2 acyl side, *3 side chain or, on linkers, in order; H or OH if unused. Where a SMILES comes first, the peptide text is derived from it. Bridges are numbered along the chain shown (N, C = ends). [ ]: non-standard residue; d: D form. The star is where a group is joined. ξ: configuration not given here. Phe(3-(CH2)7CO) = O=C([C@H](Cc1cccc(CCCCCCCC(=O)[*:3])c1)N[*:1])[*:2]; Heptanedioyl = O=C(CCCCCC(=O)[*:2])[*:1]; Adipoyl = O=C(CCCCC(=O)[*:2])[*:1]; Glutaryl = O=C(CCCC(=O)[*:2])[*:1]; X1 = CCCC(N[*:1])C(=O)C(=O)[*:2]; Chg = N[C@H](C(=O)O)C1CCCCC1; Phg = N[C@H](C(=O)O)c1ccccc1; Suc = O=C(CCC(=O)[*:2])[*:1]; ξChg = NC(C(=O)O)C1CCCCC1; OtBu = CC(C)(C)O*

These compounds were tested against Recombinant heterodimeric HCV NS3/NS4A protease (strain 1a) (Hepatitis C virus genotype 1a, UniProt P27958) (assay: biochemical).
Chain of Recombinant heterodimeric HCV NS3/NS4A protease (strain 1a) (P27958 1027-1657 limits assumed): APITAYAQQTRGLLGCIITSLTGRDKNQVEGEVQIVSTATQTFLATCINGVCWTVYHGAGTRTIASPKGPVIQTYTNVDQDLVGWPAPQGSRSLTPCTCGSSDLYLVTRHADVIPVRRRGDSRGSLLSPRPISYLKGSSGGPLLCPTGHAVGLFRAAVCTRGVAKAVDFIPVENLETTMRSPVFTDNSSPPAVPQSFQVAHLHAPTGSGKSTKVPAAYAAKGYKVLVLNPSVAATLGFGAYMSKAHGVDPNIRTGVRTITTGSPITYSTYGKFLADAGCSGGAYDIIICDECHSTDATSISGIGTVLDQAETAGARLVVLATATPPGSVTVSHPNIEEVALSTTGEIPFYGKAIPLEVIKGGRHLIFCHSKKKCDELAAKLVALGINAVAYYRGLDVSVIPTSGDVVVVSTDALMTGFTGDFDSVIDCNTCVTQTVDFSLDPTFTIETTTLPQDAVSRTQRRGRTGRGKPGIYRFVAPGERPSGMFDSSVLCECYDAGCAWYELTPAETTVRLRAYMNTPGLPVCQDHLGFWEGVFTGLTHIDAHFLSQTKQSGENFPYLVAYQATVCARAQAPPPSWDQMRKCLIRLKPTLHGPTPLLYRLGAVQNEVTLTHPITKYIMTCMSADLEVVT
Chain of Recombinant heterodimeric HCV NS3/NS4A protease (strain 1a) (P27958 1658-1711 partner limits assumed): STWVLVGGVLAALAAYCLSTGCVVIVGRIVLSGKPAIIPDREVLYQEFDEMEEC
Set-up: species or system HCV (strain 1a)

| SMILES | Ki |
| --- | --- |
| CCCC(NC(=O)[C@@H]1CCCCNC(=O)CCC(=O)N[C@H](CC(=O)O)C(=O)N[C@@H](C2CCCCC2)C(=O)N1)C(=O)C(=O)NCC(=O)N[C@H](C(N)=O)c1ccccc1 (stereo partly drawn) [Example 45] ([dD][Chg]K[X1]G[Phg]-NH2; linker N-3 via Suc) | 1100 to 100000 nM |
| CCCC(NC(=O)[C@@H]1Cc2cccc(c2)OCCCCCC(=O)N[C@@H](C2CCCCC2)C(=O)N1)C(=O)C(=O)NCC(=O)N[C@H](C(=O)O)c1ccccc1 (stereo partly drawn) [Example 14] | 1100 to 100000 nM |
| CCCC(NC(=O)C1Cc2cccc(c2)Oc2ccc(cc2)CCC(=O)NC(C2CCCCC2)C(=O)N1)C(=O)C(=O)NCC(=O)O (stereo not drawn) [Example 4] | 1100 to 100000 nM |
| CCCC(NC(=O)C1Cc2cn(cn2)CCCCCCCC(=O)NC(C2CCCCC2)C(=O)N1)C(=O)C(=O)NCC(=O)NC(C(=O)OC(C)(C)C)c1ccccc1 (stereo not drawn) [Example 23] | 1100 to 100000 nM |
| CCCC(NC(=O)[C@H]1Cc2cccc(c2)Oc2ccc(cc2)CCC(=O)N[C@@H](C2CCCCC2)C(=O)O1)C(=O)C(=O)NCC(=O)N[C@H](C(=O)OC(C)(C)C)c1ccccc1 (stereo partly drawn) [Example 37] | 1100 to 100000 nM |
| CCCC(NC(=O)[C@@H]1CCCCNC(=O)CCCCCC(=O)N[C@@H](C2CCCCC2)C(=O)N1)C(=O)C(=O)NCC(=O)N[C@H](C(N)=O)c1ccccc1 (stereo partly drawn) [Example 53] ([Chg]K[X1]G[Phg]-NH2; linker N-2 via Heptanedioyl) | 1 to 1000 nM |
| CCCC(NC(=O)[C@@H]1CCCCNC(=O)CCCCC(=O)N[C@@H](C2CCCCC2)C(=O)N1)C(=O)C(=O)NCC(=O)N[C@H](C(N)=O)c1ccccc1 (stereo partly drawn) [Example 52] ([Chg]K[X1]G[Phg]-NH2; linker N-2 via Adipoyl) | 1 to 1000 nM |
| CCCC(NC(=O)C1Cc2cccc(c2)OCCCCCCOC(=O)NC(C2CCCCC2)C(=O)N1)C(=O)C(=O)NCC(=O)N[C@H](C(=O)N(C)C)c1ccccc1 (stereo partly drawn) [Example 39] | 1 to 1000 nM |
| CCCC(NC(=O)[C@@H]1Cc2cn(cn2)CCCCCCCC(=O)N[C@@H](C2CCCCC2)C(=O)N1)C(=O)C(=O)NCC(=O)N[C@H](C(=O)O)c1ccccc1 (stereo partly drawn) [Example 24] | 1100 to 100000 nM |
| CCCC(NC(=O)[C@@H]1Cc2cccc(c2)OCCCCCCC(=O)N[C@@H](C2CCCCC2)C(=O)N1)C(=O)C(=O)NCC(=O)N[C@H](C(=O)O)c1ccccc1 (stereo partly drawn) [Example 12] | 1 to 1000 nM |
| CCCC(NC(=O)C1Cc2cccc(c2)Oc2ccc(cc2)CCCCC(=O)NC(C2CCCCC2)C(=O)N1)C(=O)C(=O)NCC(=O)NC(C(=O)OC(C)(C)C)c1ccccc1 (stereo not drawn) [Example 7] | 1100 to 100000 nM |
| CCCC(NC(=O)[C@@H]1Cc2cccc(c2)CCCCCCCC(=O)N[C@@H](C2CCCCC2)C(=O)N1)C(=O)C(=O)NCC(=O)N[C@H](C(=O)OC(C)(C)C)c1ccccc1 (stereo partly drawn) [Example 17] ([Chg][Phe(3-(CH2)7CO)][X1]G[Phg]-OtBu; lactam N-2) | 1100 to 100000 nM |
| CCCC(NC(=O)[C@@H]1CCCCNC(=O)CCCC(=O)NC(C2CCCCC2)C(=O)N1)C(=O)C(=O)NCC(=O)N[C@H](C(N)=O)c1ccccc1 (stereo partly drawn) [Example 40] ([ξChg]K[X1]G[Phg]-NH2; linker N-2 via Glutaryl) | 1100 to 100000 nM |
| CCCC(NC(=O)[C@@H]1Cc2cccc(c2)CCCCCCCC(=O)N[C@@H](C2CCCCC2)C(=O)N1)C(=O)C(=O)NCC(=O)N[C@H](C(=O)O)c1ccccc1 (stereo partly drawn) [Example 18] ([Chg][Phe(3-(CH2)7CO)][X1]G[Phg]-OH; lactam N-2) | 1 to 1000 nM |
| CCCC(NC(=O)C1Cc2cccc(c2)Oc2ccc(cc2)CC(NC(=O)OC(C)(C)C)C(=O)NC(C2CCCCC2)C(=O)N1)C(=O)C(=O)NCC(=O)O (stereo not drawn) [Example 28] | 1100 to 100000 nM |
| CCCC(NC(=O)[C@@H]1Cc2cccc(c2)C=CCCCCCC(=O)N[C@@H](C2CCCCC2)C(=O)N1)C(=O)C(=O)NCC(=O)N[C@H](C(=O)O)c1ccccc1 (stereo partly drawn) [Example 16] | 1 to 1000 nM |
| CCCC(NC(=O)C1Cc2cccc(c2)Oc2ccc(cc2)CC(NC(C)=O)C(=O)NC(C2CCCCC2)C(=O)N1)C(=O)C(=O)NCC(=O)OC(C)(C)C (stereo not drawn) [Example 31] | 1100 to 100000 nM |
| CCCC(NC(=O)C1Cc2cccc(c2)Oc2ccc(cc2)CCC(=O)NC(C2CCCCC2)C(=O)N1)C(=O)C(=O)NCC(=O)NC(C(=O)O)c1ccccc1 (stereo not drawn) [Example 2] | 1 to 1000 nM |
